Assay results taken from US5866567A, “Diazepinones, their production and use” (Takeda Chemical Industries, Ltd., priority 1995, dated 1999).
Structures can show the parent of a compound that is named as a salt.

How the values were obtained:
Human GnRH receptor = target: T1, Human GnRH receptor (Homo sapiens, UniProt P30968); experiment: Human GnRH receptor binding inhibition assay (125I-leuprolerin, membrane fraction of CHO cells expressing human GnRH receptors); settings: CHO cell membrane fraction with human GnRH receptors, 25° C., 60 minutes, concentration series, Hill plot, read-out: Binding inhibitory activity (IC50)
T1 construct: expressed in transfected cells; host or cells: CHO (Chinese hamster ovary) cells, membrane fraction
T1 sequence (P30968 1-328): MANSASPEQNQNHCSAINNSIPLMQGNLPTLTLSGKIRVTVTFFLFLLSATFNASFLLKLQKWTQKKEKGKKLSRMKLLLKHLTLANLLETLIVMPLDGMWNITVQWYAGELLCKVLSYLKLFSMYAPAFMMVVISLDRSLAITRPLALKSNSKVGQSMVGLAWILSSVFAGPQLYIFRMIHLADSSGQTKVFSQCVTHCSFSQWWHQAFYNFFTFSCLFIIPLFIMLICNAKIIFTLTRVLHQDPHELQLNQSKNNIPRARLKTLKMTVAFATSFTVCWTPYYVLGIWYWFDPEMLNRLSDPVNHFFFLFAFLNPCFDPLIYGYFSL
Method: Human GnRH receptor binding inhibition assay
(A) Preparation of ^125 I-leuprolerin
Ten (10) μl of 3×10^-4 M aqueous leuprolerin solution and 10 μl of 0.01 mg/ml lactoperoxidase solution were taken in a tube, and 10 μl of Na^125 I solution (37 MBq) was added. After stirring, 10 μl of 0.001% H2 O2 was added and the reaction was conducted at room temperature for 20 minutes. The reaction was stopped by adding 700 μl of 0.05% TFA solution, and the reaction mixture was purified by reversed HPLC. The HPLC parameters are shown below. The retention time of ^125 I-leuprolerin was 26-27 minutes.
Column: TSKgel ODS-80™ CTR (4.6 mm×10 cm)
Eluent: Solvent A (0.05%TFA) Solvent B (40%CH3 CN-0.05%TFA)
Min. 0 (100% Solvent A)--Min. 3 (100% Solvent A)--Min. 7 (50% Solvent A+50% Solvent B)--Min. 40 (100% Solvent B) Elution temperature: room temperature Elution flow rate: 1 ml/min.
CHO cells (10^9 cells) with human GnRH receptors expressed were floated on phosphate-buffered saline containing EDTA (PBS-EDTA) and centrifuged at 100×g for 5 minutes. To the pellet obtained was added 10 ml of a cell homogenate buffer (10 mM NaHCO3, 5 mM EDTA, pH 7.5) and the mixture was homogenized using a Polytron homogenizer. The homogenate was centrifuged at 400×g for 15 minutes and the supernatant was taken in an ultracentrifuge tube and recentrifuged at 100,000×g for 1 hour. The membrane fraction thus obtained as a pellet was suspended in 2 ml of assay buffer and centrifuged at 100,000×g for 1 hour. The membrane fraction recovered was resuspended in 20 ml of assay buffer and the suspension was portioned, stored at -80° C., and thawed when needed.
(C) Determination of the ^125 I-leuprolerin binding inhibition rate
The membrane fraction prepared in Step (B) was diluted with assay buffer to 200 μg/ml and the dilution was portioned into tubes, 188 μl per tube. Then, 2 μl of 2 mM solution of the test compound in 60% DMSO and 10 μl of 38 nM ^125 I-leuprolerin solution in the same solvent were simultaneously added to the tubes. To determine the maximum binding, a test mixture of 2 μl of 60% DMSO and 10 μl of 38 nM ^125 I-leuprolerin solution in the same solvent was prepared. For the determination of nonspecific binding, a test mixture of 2 μl of 100 μM leuprolerin solution in 60% DMSO and 10 μl of 38 nM solution of ^125 I-leuprolerin in the same solvent was also prepared. The mixtures were respectively allowed to react at 25° C. for 60 minutes and the reaction product in each tube was filtered through a poly(ethylene imine)-treated Whatman glass filter (GF-F) under suction. The radioactivity of ^125 I-leuprolerin remaining on the filter was determined using a γ-counter.
Using the measured values, the following equation was calculated to find the binding inhibition rate for each test compound.
Binding inhibition (%)=(TB-SB)/(TB-NSB)×100
[SB: radioactivity with the compound added
TB: maximum bound radioactivity
NBS: nonspecifically bound radioactivity]
Using a concentration series of each test compound, the concentration of the compound which inhibited the binding by 50% (IC50) was calculated by Hill plot.

GnRH = settings: relative to native GnRH; cited from earlier work
[1] = repeated administration, receptor down-regulation; cited from earlier work

| Compound | IC50 (Human GnRH receptor) [nM] | times as active as native GnRH (GnRH) | production of testosterone [1] |
| --- | --- | --- | --- |
| C[C@H](NC(=O)Nc1ccc(CN2C(=O)[C@H]3CCC[C@H]3N(C(=O)CN3C(=O)c4ccccc4C3=O)c3ccccc32)cc1)c1ccccc1 (relative stereo) [Example 28, (3aR*,10aS*)-9-[4-[3-((S)-1-Phenylethyl)ureido]-benzyl]-4-(phthalimidoacetyl)-2,3,3a,4,9,10a-hexahydrobenzo[b]cyclopenta[e][1,4]diazepin-10(1H)-one] | 300 | – | – |
| O=C(NCCc1ccccc1)Nc1ccc(CN2C(=O)[C@H]3CCC[C@H]3N(C(=O)CN3C(=O)c4ccccc4C3=O)c3ccccc32)cc1 (relative stereo) [Example 30, (3aR*,10aS*)-9-[4-[3-(2-Phenylethyl)ureido]benzyl]-4-(phthalimidoacetyl)-2,3,3a,4,9,10a-hexahydrobenzo[b]-cyclopenta[e][1,4]diazepin-10(1H)-one] | 40 | – | – |
| O=C(NCc1ccc(F)cc1)Nc1ccc(CN2C(=O)[C@H]3CCC[C@H]3N(C(=O)CN3C(=O)c4ccccc4C3=O)c3ccccc32)cc1 (relative stereo) [Example 31, (3aR*,10aS*)-9-[4-[3-(4-Fluorobenzyl)ureido]benzyl]-4-(phthalimidoacetyl)-2,3,3a,4,9,10a-hexahydrobenzo[b]-cyclopenta[e][1,4]diazepin-10(1H)-one] | 30 | – | – |
| COc1ccc(CNC(=O)Nc2ccc(CN3C(=O)[C@H]4CCC[C@H]4N(C(=O)CN4C(=O)c5ccccc5C4=O)c4ccccc43)cc2)cc1 (relative stereo) [Example 32, (3aR*,10aS*)-9-[4-[3-(4-Methoxybenzyl)ureido]-benzyl]-4-(phthalimidoacetyl)-2,3,3a,4,9,10a-hexahydro-benzo[b]cyclopenta[e][1,4]diazepin-10(1H)-one] | 40 | – | – |
| O=C(NCc1ccncc1)Nc1ccc(CN2C(=O)[C@H]3CCC[C@H]3N(C(=O)CN3C(=O)c4ccccc4C3=O)c3ccccc32)cc1 (relative stereo) [Example 34, (3aR*,10aS*)-4-(Phthalimidoacetyl)-9-[4-[3-(4-pyridylmethyl)ureido]benzyl]-2,3,3a,4,9,10a-hexahydrobenzo[b]cyclopenta[e][1,4]diazepin-l0(1H)-one hydrochloride] | 80 | – | – |
| Leuprolerin acetate | – | 20-50 times | cut down on the production of testosterone to the castrated level |
